Experimental data: patent US20250145566A1, “PHENETHYLAMINE DERIVATIVES, COMPOSITIONS, AND METHODS OF USE” (Cybin IRL Limited, priority 2022, published 2025)
Read-outs that look alike come from different tables or passages of the source.

Tests used:
[1] = target: Norepinephrine transporter (Homo sapiens, UniProt P23975); details: read-out: Function NET IC50; literature, racemic; cited from earlier work
Dopamine transporter = Dopamine transporter (Homo sapiens, UniProt Q01959); details: variable numbers in the literature, racemic, cited from earlier work
Sequence of Dopamine transporter (Q01959 whole entry): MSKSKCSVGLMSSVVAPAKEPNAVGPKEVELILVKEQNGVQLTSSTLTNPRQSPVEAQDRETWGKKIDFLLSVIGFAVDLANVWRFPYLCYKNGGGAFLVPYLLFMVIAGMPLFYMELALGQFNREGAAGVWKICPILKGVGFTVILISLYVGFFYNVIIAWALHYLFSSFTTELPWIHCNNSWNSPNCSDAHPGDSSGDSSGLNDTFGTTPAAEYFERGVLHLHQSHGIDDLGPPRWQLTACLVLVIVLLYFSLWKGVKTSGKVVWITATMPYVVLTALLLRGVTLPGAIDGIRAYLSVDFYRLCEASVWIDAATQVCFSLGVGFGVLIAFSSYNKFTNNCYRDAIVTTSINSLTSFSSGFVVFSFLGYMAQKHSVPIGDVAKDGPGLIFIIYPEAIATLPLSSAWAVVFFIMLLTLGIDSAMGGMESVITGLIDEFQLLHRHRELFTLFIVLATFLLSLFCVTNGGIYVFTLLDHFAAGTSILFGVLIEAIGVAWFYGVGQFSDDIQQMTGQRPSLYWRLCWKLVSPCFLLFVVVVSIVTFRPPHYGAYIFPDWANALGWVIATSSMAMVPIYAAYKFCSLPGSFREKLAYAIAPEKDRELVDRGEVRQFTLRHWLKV

5-HT2C (h) [2] = target: T1, 5-HT2C (h) (Homo sapiens, UniProt P28335); details: literature, single enantiomers; cited from earlier work
T1 construct: expressed in transfected cells; host or cells: HEK-293 cells
T1 sequence (P28335 33-458): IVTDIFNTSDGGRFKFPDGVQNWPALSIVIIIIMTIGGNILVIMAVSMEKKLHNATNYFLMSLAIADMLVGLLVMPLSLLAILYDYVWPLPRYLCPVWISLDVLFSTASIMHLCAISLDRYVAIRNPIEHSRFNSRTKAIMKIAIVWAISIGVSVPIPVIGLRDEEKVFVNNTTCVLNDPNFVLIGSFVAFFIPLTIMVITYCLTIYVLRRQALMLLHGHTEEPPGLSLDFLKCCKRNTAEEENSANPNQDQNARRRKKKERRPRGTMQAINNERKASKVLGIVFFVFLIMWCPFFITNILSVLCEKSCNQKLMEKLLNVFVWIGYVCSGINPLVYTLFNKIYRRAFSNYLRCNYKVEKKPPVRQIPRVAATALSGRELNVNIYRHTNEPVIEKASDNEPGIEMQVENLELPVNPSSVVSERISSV

5-HT2A (h) [3] = target: T2, 5-HT2A (h) (Homo sapiens, UniProt P28223); details: literature, single enantiomers, cited from earlier work; for EC50: read-out: Function 5-HT2A EC50
T2 construct: expressed in transfected cells; host or cells: HEK-293 cells
T2 sequence (P28223 whole entry): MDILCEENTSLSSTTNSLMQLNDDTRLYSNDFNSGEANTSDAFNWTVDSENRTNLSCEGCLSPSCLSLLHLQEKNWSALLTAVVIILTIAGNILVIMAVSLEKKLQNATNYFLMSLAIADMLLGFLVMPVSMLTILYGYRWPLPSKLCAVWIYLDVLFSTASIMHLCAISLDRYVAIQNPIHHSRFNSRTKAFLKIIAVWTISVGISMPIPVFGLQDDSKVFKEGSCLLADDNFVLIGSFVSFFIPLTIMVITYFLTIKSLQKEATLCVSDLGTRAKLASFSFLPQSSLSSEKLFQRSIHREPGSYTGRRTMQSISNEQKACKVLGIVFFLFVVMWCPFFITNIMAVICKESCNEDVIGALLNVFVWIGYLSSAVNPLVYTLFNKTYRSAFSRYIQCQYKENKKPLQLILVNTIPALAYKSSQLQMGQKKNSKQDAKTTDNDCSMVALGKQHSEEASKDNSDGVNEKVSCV

MAO-B = target: T3, MAO-B (Homo sapiens, UniProt P27338); assay: human MAO-B in vitro metabolism; assay type: in vitro ADME; details: human MAO-B enzyme (Corning), test compound 1 μM, read-out: MAO-B t1/2
T3 construct: purchased Corning 456284
T3 sequence (P27338 1-520): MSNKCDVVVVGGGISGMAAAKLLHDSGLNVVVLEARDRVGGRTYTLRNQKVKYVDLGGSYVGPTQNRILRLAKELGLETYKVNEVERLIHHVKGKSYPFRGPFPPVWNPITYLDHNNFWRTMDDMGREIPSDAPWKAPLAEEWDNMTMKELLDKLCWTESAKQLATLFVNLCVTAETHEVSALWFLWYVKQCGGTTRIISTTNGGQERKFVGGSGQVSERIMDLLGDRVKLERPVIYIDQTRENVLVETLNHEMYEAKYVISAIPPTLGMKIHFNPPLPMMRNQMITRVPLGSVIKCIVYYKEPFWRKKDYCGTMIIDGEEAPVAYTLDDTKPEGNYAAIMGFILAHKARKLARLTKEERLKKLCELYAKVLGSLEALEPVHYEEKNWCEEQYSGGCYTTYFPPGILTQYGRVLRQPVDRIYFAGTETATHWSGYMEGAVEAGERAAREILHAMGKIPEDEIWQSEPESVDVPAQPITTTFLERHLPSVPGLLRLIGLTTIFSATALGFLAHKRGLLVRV
Procedure: (§1) In a different series of reactions using human MAO-A and MAO-B, a 10 mM stock solution of the test compound was prepared in DMSO. From this stock solution, an intermediate stock solution of 1 mM was prepared by diluting the compound in DMSO and from this intermediate stock solution, a working solution of 0.30 mM was prepared by diluting the compound in ACN:Water (50:50) as cocktail of 2 compounds (30 μL each compound in 40 μL diluent for 100 μL). Following this, a master mix of 0.1 M potassium phosphate buffer and test compound mixture i.e., the non-deuterated and the deuterated analog, were prepared to achieve final drug concentration of 1 μM (0.2% DMSO) for the required number of reactions. The aforementioned master mix was pre-incubated at 37° C. for 5 min. To this master mix, MAO-A (final protein conc. 0.1 mg/mL; Corning Cat #456283; Lot #1173003) or MAO-B (final protein conc. 0.1 mg/mL; Corning Cat #456284; Lot #0318001) was added to initiate the reaction. The samples were then incubated at 37° C. for the desired time points. At each time point (0, 5, 15, 30, 45, 60), 40 μL of the samples were withdrawn and reactions were stopped using 200 μL chilled ACN containing 0.1% formic acid and internal standard Carbamazepine (10 ng/mL). The samples were centrifuged, and the supernatant was analyzed by LC-MS/MS. The percent compound remaining at each time point was calculated with respect to that of the 0 min sample. The data were then analyzed to calculate half-life and intrinsic clearance (CLint). Blank samples were prepared using DMSO (without the test compound).

MAO-A = target: T4, MAO-A (Homo sapiens, UniProt P21397); assay: Recombinant human MAO-A in vitro metabolism; assay type: in vitro ADME; details: human, recombinant human MAO-A
T4 construct: purchased XenoTech (first series); Corning (second series) Corning 456283
T4 sequence (P21397 1-527): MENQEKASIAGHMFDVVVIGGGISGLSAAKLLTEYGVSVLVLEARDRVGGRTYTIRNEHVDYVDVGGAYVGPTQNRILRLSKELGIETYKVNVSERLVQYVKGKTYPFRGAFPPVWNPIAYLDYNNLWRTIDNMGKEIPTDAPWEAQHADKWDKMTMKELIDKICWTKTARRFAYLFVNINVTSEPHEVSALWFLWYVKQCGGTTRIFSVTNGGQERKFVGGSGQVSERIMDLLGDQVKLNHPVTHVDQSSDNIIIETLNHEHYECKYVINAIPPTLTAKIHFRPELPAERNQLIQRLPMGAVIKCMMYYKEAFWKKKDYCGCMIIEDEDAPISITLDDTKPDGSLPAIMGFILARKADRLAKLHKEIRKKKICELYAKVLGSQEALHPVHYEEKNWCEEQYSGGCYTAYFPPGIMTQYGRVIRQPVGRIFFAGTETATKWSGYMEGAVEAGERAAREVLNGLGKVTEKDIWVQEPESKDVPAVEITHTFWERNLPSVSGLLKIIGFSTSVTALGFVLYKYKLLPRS
Procedure: Recombinant human MAO-A. hrMAO-A and MAO control were purchased from XenoTech. The reaction mixture was prepared as described in Table 11. The test compound was added into the reaction mixture at a final concentration of 1 μM. The positive control kynuramine (25 μM) was run simultaneously with the test compound in a separate reaction. The reaction mixture (without test compounds or kynuramine) was equilibrated in a shaking water bath at 37° C. for 5 minutes. The reaction was initiated by the addition of the test compound or kynuramine, and the mixture was incubated in a shaking water bath at 37° C. Aliquots (150 μL) of the test compound reaction mixture were withdrawn at 0, 5, 10, 20, 30, 60, and for some assays at 120 minutes. Aliquots (150 μL) of the positive control reaction mixture were withdrawn at 0 and 30 minutes. Test compound and kynuramine samples were immediately combined with 150 μL of ice-cold 100% acetonitrile containing 0.1% formic acid and internal standard (0.2 μM metoprolol) to terminate the reaction. The samples were then mixed and centrifuged to precipitate proteins. All samples were assayed by LC-MS/MS. The peak area response ratio (PARR) of analyte to internal standard at each time point was compared to the PARR at time 0 to determine the percent remaining at each time point. Half-lives were calculated using GraphPad software, fitting to a single-phase exponential decay equation.
as §1

[4] = Rat liver microsomes (RLM) in vitro metabolism; assay type: in vitro ADME; details: Sprague-Dawley, pH 7.4; rat liver microsomes, test compound 1 μM; * = apparent NADPH independent reaction; read-out: RLM t1/2
Procedure: (§2) Rat Liver Microsomes (RLM). Male Sprague-Dawley rat liver microsomes were purchased from XenoTech. The reaction mixture, minus NADPH, was prepared as described in Table 10. The test compound was added into the reaction mixture at a final concentration of 1 μM. The control compound, testosterone, was run simultaneously with the test compound in a separate reaction. The reaction mixture (without cofactor) was equilibrated in a shaking water bath at 37° C. for 5 minutes. The reaction was initiated by the addition of the cofactor, and the mixture was incubated in a shaking water bath at 37° C. Aliquots (150 μL) were withdrawn at 0, 5, 10, 20, 30, 60, and for some assays at 120 minutes. Test compound and testosterone samples were immediately combined with 150 μL of ice-cold acetonitrile (ACN) containing 0.1% formic acid and internal standard to terminate the reaction. The samples were then mixed and centrifuged to precipitate proteins. All samples were assayed by LC-MS/MS using electrospray ionization. The peak area response ratio (PARR) of analyte to internal standard at each time point was compared to the PARR at time 0 to determine the percent remaining at each time point. Half-lives were calculated using GraphPad software, fitting to a single-phase exponential decay equation.
(§3) In a different series of reactions using RLM, a 10 mM stock solution of the test compound was prepared in DMSO. From this stock solution, an intermediate stock solution of 1 mM was prepared by diluting the compound in DMSO and from this intermediate stock solution, a working solution of 0.30 mM was prepared by diluting the compound in ACN:Water (50:50) as a cocktail of two compounds (i.e., 30 μL the non-deuterated and the deuterated compound in 40 μL diluent in 100 μL total volume). Following this, a master mix of rat liver microsomes (final concentration 0.5 mg/ml, Xenotech Cat #R1000; Lot #1610290) and 0.1 M potassium phosphate buffer was prepared and pre-incubated for 5 min at 37° C. The test compound mixture was then added to achieve a final test article concentration of 1 μM (for each analog if co-dosed; 0.2% DMSO); verapamil was used as a positive control. Subsequently, 10 mM NADPH prepared in 0.1 M potassium phosphate buffer was added (final concentration 1 mM) to initiate the reaction and samples were incubated at 37° C. for the desired time points (0, 5, 15, 30, 45, 60 min). At each time point, 40 μL of the samples were withdrawn and reactions were stopped using 200 μL chilled ACN containing 0.1% formic acid and internal standard carbamazepine (10 ng/mL). The samples were centrifuged, and the supernatant was analyzed by LC-MS/MS. The percent compound remaining at each time point was calculated with respect to that of the 0 min sample. The data were then analyzed to calculate half-life. Blank samples were prepared using DMSO (without the test compound).

Rat Liver Microsomes = assay: Rat liver microsomes (RLM) in vitro metabolism; assay type: in vitro ADME; details: result in words
Procedure: as §2, §3

5-HT transporter (h) = target: T5, 5-HT transporter (h) (Homo sapiens, UniProt P31645); assay: 5-HT transporter (h) binding, [3H]imipramine; details: Hill coefficient; reference compound result
T5 construct: expressed in transfected cells; host or cells: CHO cells
T5 sequence (P31645 whole entry): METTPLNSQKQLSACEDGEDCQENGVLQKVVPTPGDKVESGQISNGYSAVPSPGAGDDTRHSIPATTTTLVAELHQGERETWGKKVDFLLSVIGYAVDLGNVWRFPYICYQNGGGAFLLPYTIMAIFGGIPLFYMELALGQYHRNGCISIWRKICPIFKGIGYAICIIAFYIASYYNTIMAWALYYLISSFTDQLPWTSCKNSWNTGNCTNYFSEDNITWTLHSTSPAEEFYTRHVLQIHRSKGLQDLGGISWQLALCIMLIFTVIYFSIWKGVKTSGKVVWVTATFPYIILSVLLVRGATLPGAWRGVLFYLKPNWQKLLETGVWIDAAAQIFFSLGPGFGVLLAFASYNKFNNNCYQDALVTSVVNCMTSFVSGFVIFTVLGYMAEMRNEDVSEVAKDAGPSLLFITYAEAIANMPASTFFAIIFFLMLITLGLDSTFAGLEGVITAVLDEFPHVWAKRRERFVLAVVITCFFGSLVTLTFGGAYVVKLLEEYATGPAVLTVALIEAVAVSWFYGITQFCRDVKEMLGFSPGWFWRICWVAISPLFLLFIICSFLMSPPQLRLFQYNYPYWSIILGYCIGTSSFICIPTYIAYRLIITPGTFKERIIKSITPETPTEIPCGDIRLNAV

5-HT2A (h) [5] = target: T2, 5-HT2A (h); assay: 5-HT2A (h) agonist radioligand [125I](±)DOI binding; details: Hill coefficient; reference compound result
5-HT2C (h) [6] = target: T1, 5-HT2C (h); assay: 5-HT2C (h) agonist radioligand [125I](±)DOI binding; details: reference compound result
Procedure: (§4) Samples were then analyzed as described above.

5-HT2B (h) = target: T6, 5-HT2B (h) (Homo sapiens, UniProt P41595); assay: 5-HT2B (h) agonist radioligand [125I](±)DOI binding; details: reference compound result
T6 construct: expressed in transfected cells; host or cells: CHO cells
T6 sequence (P41595 whole entry): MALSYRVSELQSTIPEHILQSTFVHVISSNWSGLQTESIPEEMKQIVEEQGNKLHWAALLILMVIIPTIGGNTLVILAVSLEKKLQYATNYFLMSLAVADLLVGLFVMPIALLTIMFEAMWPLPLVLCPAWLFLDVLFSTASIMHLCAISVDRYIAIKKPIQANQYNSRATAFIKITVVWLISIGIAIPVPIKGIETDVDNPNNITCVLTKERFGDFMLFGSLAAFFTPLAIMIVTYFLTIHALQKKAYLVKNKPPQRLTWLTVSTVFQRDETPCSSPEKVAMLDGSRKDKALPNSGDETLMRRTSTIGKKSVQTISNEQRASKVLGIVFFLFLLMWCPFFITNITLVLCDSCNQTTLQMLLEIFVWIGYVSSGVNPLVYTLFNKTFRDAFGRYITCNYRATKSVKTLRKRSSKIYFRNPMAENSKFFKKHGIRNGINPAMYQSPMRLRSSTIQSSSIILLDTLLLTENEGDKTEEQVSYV
Procedure: as §4

dopamine transporter (h) = target: T7, dopamine transporter (h) (Homo sapiens, UniProt Q01959); assay: dopamine transporter (h) binding, [3H]BTCP; details: Hill coefficient; reference compound result
T7 construct: expressed in transfected cells; host or cells: CHO cells
T7 sequence (Q01959 whole entry): as the sequence (Q01959 whole entry) above

[7] = 1 μM test compound, read-out: half-life, MAO-A metabolism
[8] = human recombinant MAO-A, test compound 1 μM, read-out: MAO-A t1/2
[9] = agonist radioligand [125I](±)DOI

Sequence of Norepinephrine transporter (P23975 whole entry): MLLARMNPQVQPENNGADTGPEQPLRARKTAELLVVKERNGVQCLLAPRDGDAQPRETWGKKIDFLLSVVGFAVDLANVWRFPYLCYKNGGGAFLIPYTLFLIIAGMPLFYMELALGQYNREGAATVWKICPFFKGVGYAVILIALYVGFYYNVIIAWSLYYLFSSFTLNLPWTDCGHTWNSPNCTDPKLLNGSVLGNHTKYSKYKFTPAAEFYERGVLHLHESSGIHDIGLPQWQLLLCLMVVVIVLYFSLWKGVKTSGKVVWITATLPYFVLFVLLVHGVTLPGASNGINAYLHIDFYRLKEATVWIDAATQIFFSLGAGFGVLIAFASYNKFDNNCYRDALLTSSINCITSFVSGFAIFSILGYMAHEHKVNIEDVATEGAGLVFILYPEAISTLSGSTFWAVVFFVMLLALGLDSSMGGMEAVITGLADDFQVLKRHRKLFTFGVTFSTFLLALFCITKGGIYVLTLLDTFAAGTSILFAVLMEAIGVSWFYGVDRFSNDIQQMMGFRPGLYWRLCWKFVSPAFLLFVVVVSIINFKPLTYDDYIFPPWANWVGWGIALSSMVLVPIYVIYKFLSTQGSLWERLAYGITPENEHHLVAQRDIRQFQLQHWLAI

SMILES: CC(N)Cc1ccc2c(c1)OCO2 (stereo not shown) [MDA, 3,4-methylenedioxyamphetamine]
- IC50 [1]: ~300 nM
- IC50 (Dopamine transporter; read-out: Function DAT IC50, lower end of literature range): ≥ 890 nM
- IC50 (Dopamine transporter; read-out: Function DAT IC50, upper end of literature range): ≤ 21000 nM

SMILES: CN[C@@H](C)Cc1ccc2c(c1)OCO2 [S-MDMA]
- Function 5-HT2C EMAX (5-HT2C (h) [2]): EMAX = 53%
- Function 5-HT2A EMAX (5-HT2A (h) [3]): EMAX = 9%
- EC50 (5-HT2A (h) [3]): 10300 nM

SMILES: [2H]C1([2H])Oc2ccc(CCN)cc2O1 [II-11, 2-(benzo[d][1,3]dioxol-5-yl-2,2-d2)ethan-1-amine]
- half-life at 1 µM (MAO-B): < 5 min
- half-life at 1 µM (MAO-A; [7]): ≤ 8 min
- half-life at 1 µM (MAO-A; [8]): 7.97 min
- half-life at 1 µM [4]: < 5 min
- disappearance in RLM, NADPH dependence (Rat Liver Microsomes): NADPH-independent

SMILES: CN[C@H](C)Cc1ccc2c(c1)OCO2 [R-MDMA]
- Function 5-HT2C EMAX (5-HT2C (h) [2]): EMAX = 27%
- Function 5-HT2A EMAX (5-HT2A (h) [3]): EMAX = 21%
- EC50 (5-HT2A (h) [3]): 3100 nM

SMILES: CN(C)CCCN1c2ccccc2CCc2ccccc21 [imipramine, reference compound]
- nH (5-HT transporter (h)): 1.2

SMILES: NCCc1ccc2c(c1)OCO2 [Reference Compound 5, 3,4-Methylenedioxyphenethylamine, reference compound]
- half-life at 1 µM (MAO-B): 7.91 min
- half-life at 1 µM (MAO-A; [7]): ≤ 8 min
- half-life at 1 µM (MAO-A; [8]): 8.34 min
- half-life at 1 µM [4]: < 5 min
- disappearance in RLM, NADPH dependence (Rat Liver Microsomes): NADPH-independent

SMILES: COc1cc(CC(C)N)c(OC)cc1I (racemic) [(±)DOI]
- nH (5-HT2A (h) [5]): 1.0
- nH (5-HT2C (h) [6]; Hill coefficient): 0.9
- IC50 (5-HT2C (h) [6]; [9]): 0.37 nM
- Ki (5-HT2C (h) [6]; [9]): 0.33 nM
- nH (5-HT2B (h); Hill coefficient): 1.1
- IC50 (5-HT2B (h); [9]): 3.8 nM
- Ki (5-HT2B (h); [9]): 1.9 nM

SMILES: c1ccc2sc(C3(N4CCCCC4)CCCCC3)cc2c1 [BTCP, reference compound]
- nH (dopamine transporter (h)): 1.0
